Measured values from publication PMC9574513 (The Journal of Biological Chemistry, 2022).
Where a chain is given by its changes, count along the chain named.

Key:
PtKCS4 = target: T1, PtKCS4 (Populus trichocarpa, UniProt U7E0F5); assay type: cell-based; details: inhibition; 30 °C, 4 days, yeast culture
T1 sequence (U7E0F5 1-524): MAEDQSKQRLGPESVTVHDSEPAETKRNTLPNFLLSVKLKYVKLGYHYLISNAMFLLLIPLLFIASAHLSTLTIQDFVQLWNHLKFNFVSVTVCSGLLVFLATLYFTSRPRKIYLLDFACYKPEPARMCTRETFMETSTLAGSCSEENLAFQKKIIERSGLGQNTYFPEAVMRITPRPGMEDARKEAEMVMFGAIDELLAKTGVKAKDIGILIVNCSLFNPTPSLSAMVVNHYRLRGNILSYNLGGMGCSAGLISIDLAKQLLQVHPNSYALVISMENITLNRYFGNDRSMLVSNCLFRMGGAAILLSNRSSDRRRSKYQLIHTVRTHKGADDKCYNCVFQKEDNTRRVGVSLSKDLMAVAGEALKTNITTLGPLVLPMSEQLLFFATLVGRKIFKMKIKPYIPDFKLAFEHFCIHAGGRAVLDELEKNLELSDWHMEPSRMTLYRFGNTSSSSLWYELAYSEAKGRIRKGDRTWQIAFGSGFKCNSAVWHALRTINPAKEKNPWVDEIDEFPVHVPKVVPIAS

PtKCS2 = target: T2, PtKCS2 (Populus trichocarpa, UniProt A0A2K1YQQ5); assay type: cell-based; details: inhibition; 30 °C, 4 days, yeast culture
T2 sequence (A0A2K1YQQ5 1-524): T1 sequence (U7E0F5 1-524) with C94S, T137K, T139V, C144F, R283C

| Structure (SMILES) | proportion of total VLC-FAMEs vs uninhibited control at 2 μM (PtKCS4) | proportion of total VLC-FAMEs vs uninhibited control at 2 μM (PtKCS2) |
| --- | --- | --- |
| CC(C)N(C(=O)COc1nnc(C(F)(F)F)s1)c1ccc(F)cc1 [flufenacet] | Flufenacet and fentrazamide had the greatest effect on reducing VLCFA elongation in all three KCSs | Flufenacet and fentrazamide had the greatest effect on reducing VLCFA elongation in all three KCSs |
| CCc1cccc(CC)c1N(COC)C(=O)CCl [alachlor] | whereas alachlor and anilofos slightly reduced activity | whereas alachlor and anilofos slightly reduced activity |
